This note sets out measurements from patent publication US20050250820A1, “Therapeutic modulation of PPARgamma activity” (Amgen Inc., priority 2004, published 2005).

Data set [1] addresses T1, PPARγ (UniProt P37231).
T1 construct: fused on or other part: GST tag fused to PPARgamma, used for capture on glutathione beads
T1 sequence (P37231 1-505): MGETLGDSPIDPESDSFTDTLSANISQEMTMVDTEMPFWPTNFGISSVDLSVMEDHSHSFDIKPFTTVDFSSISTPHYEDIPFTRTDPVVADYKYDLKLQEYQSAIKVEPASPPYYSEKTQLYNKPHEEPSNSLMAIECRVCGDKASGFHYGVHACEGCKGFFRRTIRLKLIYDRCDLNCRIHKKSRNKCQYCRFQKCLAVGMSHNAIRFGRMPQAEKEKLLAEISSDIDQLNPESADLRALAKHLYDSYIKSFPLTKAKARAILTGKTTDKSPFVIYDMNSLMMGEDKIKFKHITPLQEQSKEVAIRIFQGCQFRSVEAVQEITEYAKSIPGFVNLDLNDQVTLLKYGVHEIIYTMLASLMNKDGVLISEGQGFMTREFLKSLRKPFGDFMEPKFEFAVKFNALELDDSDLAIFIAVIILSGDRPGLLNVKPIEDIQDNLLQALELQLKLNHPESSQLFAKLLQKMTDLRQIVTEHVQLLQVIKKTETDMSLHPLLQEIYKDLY
As to the kind of experiment: PPARγ ligand binding assay utilizing [3H]-BRL 49653 as the radioligand. As to conditions: concentration required to reduce specific binding by 50%. From the text: The compounds for use according to the present invention can be evaluated for modulation of the PPARγ receptor using assays such as those described in Jiang, et al., Nature 391:82-86 (1998), Ricote, et al., Nature 391:79-82 (1998) and Lehmann, et al., J. Biol. Chem. 270(12): 12953-12956 (1995). Alternatively, the compounds for use according to the invention can be evaluated for their ability to displace radiolabeled BRL 49653 from a PPARγ-GST fusion protein as follows:
PPAR-γ-GST fusion protein (prepared according to standard procedures), [^3H]-BRL 49653 having 50 Ci/mmol specific activity, Polyfiltronics Unifilter 350 filtration plate and glutathione-Sepharose® beads (from Pharmacia: washed twice with 10× binding buffer in which BSA and DTI can be left out).
Binding buffer (10 mM Tris-HCl, pH 8.0, 50 mM KCl, 10 mM DTT, 0.02% BSA and 0.01% NP-40) is added in 80 microliter amounts to the wells of the filtration plate. The test compound is then added in 10 microliters of DMSO. The PPARy-GST fusion protein and radiolabeled BRL compound are premixed in binding buffer containing 10 mM DTT and added in 10 microliter amounts to the wells of the plate to provide final concentrations of 1 μg/well of PPAR-γ-GST fusion protein and 10 nM [^3H]-BRL 49653 compound. The plate is incubated for 15 minutes. Glutathione-agarose bead is added in 50 μL of binding buffer, and the plate is vigorously shaken for one hour. The plate is washed four times with 200 μL/well of binding buffer (without BSA and DTT). The bottom of the plate is sealed and 200 μL/well of scintillation cocktail is added. The top of the plate is then sealed and the radioactivity is determined. Formulation and Administration of the Compounds (Compositions) for Use According to the Invention

Data set [2] has as its system KK-Ay mice. As to the kind of experiment: anti-diabetic efficacy in KK-Ay mice (change in serum glucose levels). Format: in vivo. The note with it: 0.018% (30 mg/kg) dietary admixture in powdered diet, change in serum glucose levels compared to untreated control animals. As to the method: Selected compounds were administered to KK-Ay mice as a 0.018% (30 mg/kg) dietary admixture in powdered diet and evaluated for anti-diabetic efficacy as described (T. Shibata, K. Matsui, K. Nagao, H. Shinkai, F. Yonemori and K. Wakitani 1999; European Journal of Pharmacology 364:211-219). The change in serum glucose levels compared to untreated control animals is exemplified in Table 39.

The structures appear in SMILES notation.

One may read the IC50 as the concentration that gives 50% inhibition. A lower IC50 goes with higher potency. What is called melting point is the temperature, or range, at which the solid turns liquid. The molecule `O=S(=O)(Nc1cc(Cl)c(Sc2cnc3ccccc3c2)c(Cl)c1)c1ccccc1Cl` [Example 86] had a melting point of 219.6 °C. In data set [1], the IC50 is < 1000 nM.
As to `O=S(=O)(Nc1cc(Cl)c(Oc2nc3ccc(Cl)cc3s2)c(Cl)c1)c1ccc(C(F)(F)F)cc1Cl` [Example 365, 2-Chloro-N-[3,5-dichloro-4-(6-chloro-benzothiazol-2-yloxy)-phenyl]-4-trifluoromethyl-benzenesulfonamide], the melting point was 82 to 84 °C. Besides, the IC50 in data set [1] is < 10000 nM. Further, in data set [2], the “KKAy Glucose” value is “++ ((++) glucose lowering >20%)”.
`O=S(=O)(Nc1cc(Cl)c(Sc2cnc3ccccc3c2)c(Cl)c1)c1ccc(C(F)(F)F)cc1Cl` [Example 87.3] gave a melting point of 225.1 °C. In addition, in data set [1], the IC50 is < 1000 nM. Further, the “KKAy Glucose” value in data set [2] is listed as “++ ((++) glucose lowering >20%)”.
For the molecule `Nc1cc(Cl)c(Oc2nc3ccc(Cl)cc3s2)c(Cl)c1` [Example 364, 3,5-dichloro-4-(6-chloro-benzothiazol-2-yloxy)-phenylamine], the IC50 in data set [1] was < 10000 nM. Further, the “KKAy Glucose” value in data set [2] was “+ ((+) 10% to 20%)”.
`COc1ccc2nc(Oc3c(Cl)cc(NS(=O)(=O)c4ccc(C(F)(F)F)cc4Cl)cc3Cl)sc2c1` [Example 368, 2-Chloro-N-[3,5-dichloro-4-(6-methoxybenzothol-2-yloxy)-phenyl]-4-trifluoromethyl-benzenesulfonamide] yielded a melting point of 164 to 165 °C. Also, the IC50 in data set [1] was < 1000 nM.
